PubChem BioAssay (NCI)
Where “and” joins values, the source holds several entries; their conditions need not be identical. Identical values can stand only once.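 Five compound concentrations were applied to cells in 96-well plates for 48 hours; endpoints were derived by simple linear interpolation of the resulting dose-response curve. GI50 = concentration required for 50% inhibition of growth. TGI: total growth inhibition.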 Where a SMILES comes first, the peptide text is derived from it. The star is where a group is joined. Trt = c1ccc(C(c2ccccc2)(c2ccccc2)*)cc1; Cbz = O=C(OCc1ccccc1)*

How the values were obtained:
Test in all cases: NCI tumour cell line growth inhibition, 48 h
SF-539 CNS = system: SF-539 CNS
RPMI-8226 leukemia = system: RPMI-8226 leukemia
IGROV1 ovarian = system: IGROV1 ovarian
DU-145 prostate = system: DU-145 prostate
786-0 renal = system: 786-0 renal
HCT-15 colon = system: HCT-15 colon
CAKI-1 renal = system: CAKI-1 renal
SN12C renal = system: SN12C renal
SW-620 colon = system: SW-620 colon
TK-10 renal = system: TK-10 renal

| Structure (SMILES) | TGI (SF-539 CNS) | TGI (RPMI-8226 leukemia) [µM] | TGI (IGROV1 ovarian) [µM] | TGI (DU-145 prostate) [µM] | TGI (786-0 renal) | TGI (HCT-15 colon) [µM] | TGI (CAKI-1 renal) [µM] | TGI (SN12C renal) [µM] | TGI (SW-620 colon) [µM] | TGI (TK-10 renal) [µM] | GI50 (SF-539 CNS) | GI50 (RPMI-8226 leukemia) | GI50 (IGROV1 ovarian) | GI50 (DU-145 prostate) | GI50 (786-0 renal) | GI50 (HCT-15 colon) | GI50 (CAKI-1 renal) | GI50 (SN12C renal) | GI50 (SW-620 colon) | GI50 (TK-10 renal) [µM] |
| --- | --- | --- | --- | --- | --- | --- | --- | --- | --- | --- | --- | --- | --- | --- | --- | --- | --- | --- | --- | --- |
| O=S(=O)(O)SCCNCCCCCC1CCCCC1 | 19.6 µM | 42.1 | 20.7 | 12.1 | 28 µM | 24.5 | 35.4 | 11.3 | 21.7 | 20.7 | – | – | – | – | – | – | – | – | – | – |
| O=C(NOCCO)c1cc(CN2OCCCC2=O)c(F)c(F)c1Nc1ccc(I)cc1F | 66 µM and > 10 µM | > 84.4 | > 52.5 | > 100 | > 92.2 µM | > 100 | > 40.5 | > 100 | > 100 | > 100 | 8.61 µM and > 10 µM | 21.7 µM and > 5.14 µM | 0.101 µM and 0.0246 µM | 12 µM and > 8.73 µM | 15.7 µM and > 10 µM | 5.74 µM and > 6.24 µM | 0.29 µM | 2.15 µM and 2.17 µM | < 0.01 µM and 0.00529 µM | – |
| CC(N1CCOCC1)C(O)(c1ccccc1)c1ccccn1 (stereo unspecified) | > 100 µM | > 100 | > 100 | > 100 | > 100 µM | > 100 | > 100 | > 100 | > 100 | > 100 | – | – | – | – | – | – | – | – | – | – |
| O=Cc1ccc(N2CCN(c3ccc(C=O)cc3)CC2)cc1 | > 100 µM | > 100 | > 100 | > 100 | > 100 µM | > 100 | 76.5 | > 100 | > 100 | 76.8 | > 100 µM | > 100 µM | 45.8 µM | > 100 µM | > 100 µM | > 100 µM | 10.8 µM | > 100 µM | > 100 µM | 4.13 |
| O=C(C=C=Nc1ccccc1)C(=O)N=C=Cc1ccccc1 | 23 µM | 2.29 | 12.3 | 6.82 | 3.9 µM | 4.05 | 6.05 | 19.4 | 3.61 | 6.83 | 9.39 µM | 0.534 µM | 2.96 µM | 2.24 µM | 1.75 µM | 1.42 µM | 1.73 µM | 4.71 µM | 1.72 µM | 2.52 |
| CC(/C=N/N=C(N)N)=N\N=C(N)N | 103 µM | 454 | 1640 | 2240 | > 83.6 µM and 19.7 µM | 2500 | 1010 | 941 | 2070 | 813 | 21.8 µM | > 42.8 µM | – | 31 µM | 6.12 µM and 1.67 µM | > 51.4 µM | 51.7 µM and 15.7 µM | – | 15 µM | 32.3 |
| O=C(/C=C/c1ccc([N+](=O)[O-])cc1)c1cccc(Nc2nc(Nc3ccccc3)nc(Nc3ccccc3)n2)c1 | 35.5 µM | 6.31 | 63.1 | > 100 | 43.1 µM | > 100 | > 100 | > 100 | 65.9 | > 100 | 12.7 µM | 1.66 µM | 0.671 µM | 28.2 µM | 13 µM | 17.7 µM | 25.2 µM | 26.8 µM | 4.08 µM | 54.3 |
| COC(=O)C(CSC(c1ccccc1)(c1ccccc1)c1ccccc1)NC(=O)C(CC(N)=O)NC(=O)OCc1ccccc1 (stereo not drawn) (Cbz-Asn-Cys(Trt)-OMe; configuration not given here) | 5.49 µM | 5.93 | 25.7 | 8.61 | 12.6 µM | 14.1 | 14.3 | 15 | 23.7 | 26.8 | 1.68 µM | 2.29 µM | 6.1 µM | 2.68 µM | 3.44 µM | 3.81 µM | 3.51 µM | 3.54 µM | 7.34 µM | 5.69 |
| COc1ccc(C(=O)c2cc3c(N)c(C(=O)Nc4cccc(OC)c4)sc3nc2C)cc1 | 2.59 µM | – | > 100 | > 100 | > 100 µM | > 100 | > 100 | > 100 | > 100 | > 100 | 0.372 µM | 0.39 µM | 0.724 µM | 0.523 µM | 0.713 µM | 0.479 µM | 0.694 µM | 0.867 µM | 0.446 µM | > 100 |
| Cc1cc(Nc2nc(-c3ccncc3)nc3ccccc23)n[nH]1 | > 100 µM | > 100 | > 100 | > 100 | > 100 µM | > 100 | > 100 | > 100 | > 100 | > 100 | 3.83 µM | > 100 µM | 1.92 µM | 24.2 µM | 2.98 µM | 1.77 µM | 0.58 µM | 4.55 µM | 3.71 µM | 2.07 |
| CC(C(N)=O)N(C)C(=O)c1cnc2ccccc2c1 (stereo unspecified) | > 100 µM | > 100 | > 100 | > 100 | > 100 µM | > 100 | > 100 | > 100 | > 100 | > 100 | – | – | – | – | – | – | – | – | – | – |
| O=C(Nc1cccc(C(F)(F)F)c1)c1cc2ccccc2cc1O | 70.2 µM | 2.15 | > 57.7 | > 100 | 35.5 µM | > 100 | 1.22 | > 100 | > 100 | > 41.4 | 2.25 µM | 0.354 µM | 2.88 µM | 2.22 µM | 2.08 µM | 2.34 µM | 0.345 µM | 1.49 µM | 2.51 µM | 3.97 |
| CN=C(N)N/N=C(\C)c1ccc2c(c1)Cc1ccccc1-2 | 3.02 µM | 4.16 | 19.5 | 3.17 | 3.74 µM | 3.86 | 8.82 | 5.38 | 3.29 | 14.8 | 1.66 µM | 1.72 µM | 3.74 µM | 1.12 µM | 1.86 µM | 1.83 µM | 2.5 µM | 1.92 µM | 1.43 µM | 3.18 |
